Data taken from ChEMBL document CHEMBL2202971, “Synthesis and anti-hyperglycemic activity of hesperidin derivatives” (2012).
Values belong to the compound of their own block, whether it stands above or below them. Calls of active or inactive are those of the source. The calls are words filed in the database; no cut-off is given here.

Columns and labels:
[1] = Inhibition of alpha glucosidase at 1 mM using pNPG substrate incubated for 60 mins
Mus musculus [2] = test: Antihyperglycemic activity in streptozotocin-induced diabetic Kunming mouse model assessed as blood glucose level at 100 mg/kg/day, po for 10 days measured on day 7 post dose (reference value: 23.6 +/- 4.25 mM); type: functional
Mus musculus [3] = test: Antihyperglycemic activity in streptozotocin-induced diabetic Kunming mouse model assessed as blood glucose level at 100 mg/kg/day, po for 10 days measured on day 1 post dose (reference value: 19.93 +/- 6.36 mM); type: functional
Mus musculus [4] = test: Antihyperglycemic activity in streptozotocin-induced diabetic Kunming mouse model assessed as blood glucose level at 100 mg/kg/day, po for 10 days measured on day 10 post dose (reference value: 23.03 +/- 3.94 mM); type: functional
HepG2 = test: Induction of glucose consumption in human HepG2 cells at 0.1 mM assessed as glucose concentration incubated for 36 hrs; type: functional
Mus musculus [5] = test: Antihyperglycemic activity in streptozotocin-induced diabetic Kunming mouse model assessed as blood glucose level at 100 mg/kg/day, po for 10 days measured on day 3 post dose (reference value: 23.97 +/- 3.79 mM); type: functional
Mus musculus [6] = test: Antihyperglycemic activity in streptozotocin-induced diabetic Kunming mouse model assessed as blood glucose level at 50 mg/kg/day, po for 10 days measured on day 3 post dose (reference value: 23.97 +/- 3.79 mM); type: functional
Mus musculus [7] = test: Antihyperglycemic activity in streptozotocin-induced diabetic Kunming mouse model assessed as blood glucose level at 50 mg/kg/day, po for 10 days measured on day 7 post dose (reference value: 23.6 +/- 4.25 mM); type: functional
Mus musculus [8] = test: Antihyperglycemic activity in streptozotocin-induced diabetic Kunming mouse model assessed as blood glucose level at 50 mg/kg/day, po for 10 days measured on day 10 post dose (reference value: 23.03 +/- 3.94 mM); type: functional
Mus musculus [9] = test: Antihyperglycemic activity in streptozotocin-induced diabetic Kunming mouse model assessed as blood glucose level at 50 mg/kg/day, po for 10 days measured on day 1 post dose (reference value: 19.93 +/- 6.36 mM); type: functional

inhibition [1]: 54.8%
Compound: C[C@H]1O[C@H](O[C@H]2[C@H](O)[C@@H](O)[C@@H](O[C@H]3[C@H](O)[C@@H](O)C(O)O[C@@H]3CO)O[C@@H]2CO)[C@H](O)[C@@H](O)[C@@H]1N[C@H]1C=C(CO)[C@@H](O)[C@H](O)[C@H]1O (stereo not given in full)

inhibition [1]: Active
Compound: CCCCOc1cc(O)c2c(c1)OC(c1ccc(OC)c(OC)c1)CC2=O (stereo not given)

Compound: CN(C)C(=N)NC(=N)N [METFORMIN]
Activity (Mus musculus [2]): 14.47 mM
Activity (Mus musculus [3]): 16.98 mM
Activity (Mus musculus [4]): 10 mM
Activity (HepG2): 2.11 mM
Activity (Mus musculus [5]): 20.72 mM

inhibition [1]: Active
Compound: CCC(=O)Oc1cc(O)c2c(c1)OC(c1ccc(OC)c(OC)c1)CC2=O (stereo not given)

inhibition [1]: Active
Compound: COc1ccc(C2CC(=O)c3c(O)cc(OC(=O)c4ccccc4)cc3O2)cc1O (stereo not given)

inhibition [1]: 55%
Compound: COc1ccc(C2CC(=O)c3c(O)cc(OCc4ccccc4)cc3O2)cc1O (stereo not given)
Activity (Mus musculus [2]): 19.18 mM
Activity (Mus musculus [6]): 21.25 mM
Activity (Mus musculus [3]): 16.78 mM
Activity (Mus musculus [7]): 19.35 mM
Activity (Mus musculus [4]): 13.23 mM
Activity (Mus musculus [8]): 20.1 mM
Activity (Mus musculus [9]): 17.5 mM
Activity (HepG2): 1.78 mM
Activity (Mus musculus [5]): 20.12 mM

inhibition [1]: Active
Compound: COc1ccc(C2CC(=O)c3c(O)cc(OC(C)=O)cc3O2)cc1O (stereo not given)

inhibition [1]: Active
Compound: COc1ccc(C2CC(=O)c3c(O)cc(O)cc3O2)cc1O (stereo not given)

inhibition [1]: Active
Compound: COc1ccc(C2CC(=O)c3c(O)cc(OCCCCBr)cc3O2)cc1OC (stereo not given)

inhibition [1]: Active
Compound: COc1ccc(C2CC(=O)c3c(O)cc(O)cc3O2)cc1OC (stereo not given)

inhibition [1]: 53.3%
Compound: COc1ccc(C2CC(=O)c3c(O)cc(OCc4ccccc4)cc3O2)cc1OC (stereo not given)

inhibition [1]: Active
Compound: CCC(=O)Oc1cc(O)c2c(c1)OC(c1ccc(OC)c(O)c1)CC2=O (stereo not given)
